Test results reported in publication PMC7114507 (Virus Research, 2010).

Target: T1, recHE4 (Isavirus salaris, UniProt Q9J0Y0)
T1 sequence (Q9J0Y0 17-353): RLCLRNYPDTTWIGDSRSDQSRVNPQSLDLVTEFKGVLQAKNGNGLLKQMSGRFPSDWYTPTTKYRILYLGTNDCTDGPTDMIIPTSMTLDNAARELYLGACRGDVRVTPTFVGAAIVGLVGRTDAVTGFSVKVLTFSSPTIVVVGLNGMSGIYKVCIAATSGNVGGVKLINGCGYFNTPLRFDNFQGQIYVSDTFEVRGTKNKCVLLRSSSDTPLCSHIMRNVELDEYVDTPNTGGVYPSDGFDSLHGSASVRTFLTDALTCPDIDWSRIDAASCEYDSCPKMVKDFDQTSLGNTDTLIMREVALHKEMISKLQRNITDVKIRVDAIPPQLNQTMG
Experiment: fluorescence acetylesterase assay, recHE on cobalt beads
Format: biochemical
Conditions: 0-500 uM substrate, PBS pH 7.4, RT; bead-bound

CC(=O)Oc1ccc2c(C)cc(=O)oc2c1 [4-methylumbelliferyl acetate]
fluorescence acetylesterase assay, recHE on cobalt beads: recHE4 and recHE7 proteins exhibit similar acetylesterase activities with all substrate concentrations tested
